Measured values: BindingDB's records for doi:10.1016/j.ejmech.2019.02.016 (National Health Research Institutes, 2019)

Assay: Inhibition of NS5A in HCV genotype 1b infected in human HuH7 replicon cells assessed as reduction in subgenomic viral RNA replication treated for 2 days followed by compound washout and subsequent compound dosing measured after 1 day by SEAP reporter gene assay

Structure (SMILES)	EC50
CCCCC(=O)N[C@@H](C(=O)N1CCC[C@H]1c1ncc(-c2ccc(-c3ccc(-c4cnc([C@@H]5CCCN5C(=O)[C@H](NC(=O)CCCC)c5ccccc5)s4)cc3)cc2)s1)c1ccccc1	0.031 nM
CCC(=O)N[C@@H](C(=O)N1CCC[C@H]1c1ncc(-c2ccc(-c3ccc(-c4cnc([C@@H]5CCCN5C(=O)[C@H](NC(=O)CC)c5ccccc5)s4)cc3)cc2)s1)c1ccccc1	0.016 nM
CC(=O)N[C@@H](C(=O)N1CCC[C@H]1c1ncc(-c2ccc(-c3ccc(-c4cnc([C@@H]5CCCN5C(=O)[C@H](NC(C)=O)c5ccccc5)s4)cc3)cc2)s1)c1ccccc1	0.02 nM
COC(=O)N[C@H](C(=O)N1CCC[C@H]1c1ncc(-c2ccc(-c3ccc(-c4cnc([C@@H]5CCCN5C(=O)[C@@H](NC(=O)OC)C(C)C)s4)cc3)cc2)s1)C(C)C	56 nM
CC[C@H](NC(=O)OC)C(=O)N1CCC[C@H]1c1ncc(-c2ccc(-c3ccc(-c4cnc([C@@H]5CCCN5C(=O)[C@H](CC)NC(=O)OC)s4)cc3)cc2)s1	57 nM
COC(=O)N[C@H](C(=O)N1CCC[C@H]1c1ncc(-c2ccc(-c3ccc(-c4cnc([C@@H]5CCCN5C(=O)[C@@H](NC(=O)OC)C(C)(C)C)s4)cc3)cc2)s1)C(C)(C)C	471 nM
CCCC[C@@H](NC(=O)C1CC1)C(=O)N1CCC[C@H]1c1ncc(-c2ccc(-c3ccc(-c4cnc([C@@H]5CCCN5C(=O)[C@@H](CCCC)NC(=O)C5CC5)s4)cc3)cc2)s1	358 nM
CN1CCN(CCC(=O)N[C@H](C(=O)N2CCC[C@H]2c2ncc(-c3ccc(-c4ccc(-c5cnc([C@@H]6CCCN6C(=O)[C@H](NC(=O)CCN6CCN(C)CC6)c6ccccc6)s5)cc4)cc3)s2)c2ccccc2)CC1	102 nM
CN(C)CCC(=O)N[C@H](C(=O)N1CCC[C@H]1c1ncc(-c2ccc(-c3ccc(-c4cnc([C@@H]5CCCN5C(=O)[C@H](NC(=O)CCN(C)C)c5ccccc5)s4)cc3)cc2)s1)c1ccccc1	6.9 nM
O=C(N[C@H](C(=O)N1CCC[C@H]1c1ncc(-c2ccc(-c3ccc(-c4cnc([C@@H]5CCCN5C(=O)[C@H](NC(=O)c5ccsc5)c5ccccc5)s4)cc3)cc2)s1)c1ccccc1)c1ccsc1	122 nM
O=C(N[C@H](C(=O)N1CCC[C@H]1c1ncc(-c2ccc(-c3ccc(-c4cnc([C@@H]5CCCN5C(=O)[C@H](NC(=O)c5ccccn5)c5ccccc5)s4)cc3)cc2)s1)c1ccccc1)c1ccccn1	2640 nM
O=C(N[C@H](C(=O)N1CCC[C@H]1c1ncc(-c2ccc(-c3ccc(-c4cnc([C@@H]5CCCN5C(=O)[C@H](NC(=O)C5CCCC5)c5ccccc5)s4)cc3)cc2)s1)c1ccccc1)C1CCCC1	1.1 nM
CCCCCC(=O)N[C@H](C(=O)N1CCC[C@H]1c1ncc(-c2ccc(-c3ccc(-c4cnc([C@@H]5CCCN5C(=O)[C@H](NC(=O)CCCCC)c5ccccc5)s4)cc3)cc2)s1)c1ccccc1	2.4 nM
O=C(CCN1CCOCC1)N[C@@H](C(=O)N1CCC[C@H]1c1ncc(-c2ccc(-c3ccc(-c4cnc([C@@H]5CCCN5C(=O)[C@H](NC(=O)CCN5CCOCC5)c5ccccc5)s4)cc3)cc2)s1)c1ccccc1	0.2 nM
O=C(CCn1cccc1)N[C@@H](C(=O)N1CCC[C@H]1c1ncc(-c2ccc(-c3ccc(-c4cnc([C@@H]5CCCN5C(=O)[C@H](NC(=O)CCn5cccc5)c5ccccc5)s4)cc3)cc2)s1)c1ccccc1	0.017 nM
O=C(N[C@@H](C(=O)N1CCC[C@H]1c1ncc(-c2ccc(-c3ccc(-c4cnc([C@@H]5CCCN5C(=O)[C@H](NC(=O)c5ccoc5)c5ccccc5)s4)cc3)cc2)s1)c1ccccc1)c1ccoc1	0.08 nM
O=C(Cc1ccccc1)N[C@@H](C(=O)N1CCC[C@H]1c1ncc(-c2ccc(-c3ccc(-c4cnc([C@@H]5CCCN5C(=O)[C@H](NC(=O)Cc5ccccc5)c5ccccc5)s4)cc3)cc2)s1)c1ccccc1	0.13 nM
O=C(N[C@@H](C(=O)N1CCC[C@H]1c1ncc(-c2ccc(-c3ccc(-c4cnc([C@@H]5CCCN5C(=O)[C@H](NC(=O)C5CC5)c5ccccc5)s4)cc3)cc2)s1)c1ccccc1)C1CC1	0.003 nM
CCCC(=O)N[C@@H](C(=O)N1CCC[C@H]1c1ncc(-c2ccc(-c3ccc(-c4cnc([C@@H]5CCCN5C(=O)[C@H](NC(=O)CCC)c5ccccc5)s4)cc3)cc2)s1)c1ccccc1	0.013 nM
